Assay results reported in paper PMC11579541, “In vitro, in vivo, and in silico approaches for evaluating the preclinical DMPK profiles of ammoxetine, a novel chiral serotonin and norepinephrine reuptake inhibitor” (Frontiers in Pharmacology, 2024).
Like-named read-outs stand apart in the source and are kept apart here.

What was measured:
[1] = Tissue distribution study in rats; type: in vivo; settings: 20 mg/kg oral; for Tmax: read-out: time of peak concentration in tissue; for Kp: po, 20 mg/kg, read-out: AUC(0→t),tissue/AUC(0→t),blood
Experimental: A total of 24 rats were divided equally into four groups, with each group receiving a single oral gavage dose of 20 mg/kg of ammoxetine. Based on the rat PK analysis results for the 20 mg/kg dose, specific time points were selected for sampling, including before, at, and after the peak of ammoxetine plasma concentration (i.e., 0.25, 2, 6, and 24 h, respectively). At each designated time point after drug administration, the rats were euthanized, and approximately 1 mL of blood samples were collected into heparinized tubes. The heart, liver, spleen, lung, kidney, brain, intestine, stomach, testis, fat, and muscle tissues were rapidly removed after washing out the blood with ice-cold saline. The blood samples were then centrifuged at 6,000 r/min for 15 min to obtain plasma. The collected tissue samples were weighed and homogenized in distilled water to create a 10% homogenate. For further analysis, 100 μL of plasma or tissue homogenate samples were mixed with 300 μL of methanol and 100 μL of L-phencynonate (IS, 50 ng/mL). The mixture was vortexed for 1 min and then centrifuged at 13,800×g for 10 min. The resulting supernatants were used for LC-MS-MS analysis. Using the trapezoidal method, the tissue-to-blood AUC ratio ( AUC0→t,tissue/AUC0→t,blood ) was calculated based on the obtained AUC values. This ratio allowed for the comparison of differential tissue distribution of ammoxetine in rats.

CYP 1A2 = target: T1, CYP 1A2 (Homo sapiens, UniProt P05177); experiment: Phenotyping with recombinant human CYP 1A2; type: in vitro ADME; set-up: purchased BD (Woburn, USA); settings: 5 μmol/L, 25 pmol/mL CYP, 1 h
T1 sequence (P05177 1-516): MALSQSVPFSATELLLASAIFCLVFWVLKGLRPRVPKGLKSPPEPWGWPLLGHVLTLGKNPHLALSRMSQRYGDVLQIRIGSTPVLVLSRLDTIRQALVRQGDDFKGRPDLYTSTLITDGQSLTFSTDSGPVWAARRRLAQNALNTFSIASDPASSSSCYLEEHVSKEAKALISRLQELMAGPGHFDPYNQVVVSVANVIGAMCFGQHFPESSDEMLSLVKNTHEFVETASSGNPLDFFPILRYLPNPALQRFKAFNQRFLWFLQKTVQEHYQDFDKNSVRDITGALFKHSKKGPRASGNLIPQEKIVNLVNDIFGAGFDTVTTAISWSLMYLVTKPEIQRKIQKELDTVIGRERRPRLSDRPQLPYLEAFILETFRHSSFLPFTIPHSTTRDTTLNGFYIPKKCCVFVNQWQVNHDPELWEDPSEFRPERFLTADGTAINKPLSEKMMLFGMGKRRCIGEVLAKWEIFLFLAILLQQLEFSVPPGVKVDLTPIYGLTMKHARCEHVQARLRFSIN
Experimental: Ammoxetine (final concentration 5 μmol/L) was incubated with recombinant human CYP 3A4, CYP 1A2, CYP 2C9, CYP 2C19, and CYP 2D6 (final concentration 25 pmol/mL) in a 5 mmol/L K2HPO4 buffer at pH 7.4. The incubations were performed in quintuplicate. NADPH (final concentration 1 mmol/L) was added to initiate the incubation process. The mixture was then incubated at 37°C for 1 h. To stop the reaction, 200 μL of ice-cold acetonitrile/methanol (1:1, v/v) containing 500 ng/mL of L-phencynonate (IS) was added. The samples were vortexed for 2 min and centrifuged at 13,800×g and 4°C for 10 min. The supernatants obtained were analyzed using an LC-MS-MS method. To establish appropriate controls, zero-time controls and blank controls in the absence of NADPH were set up in parallel.

RLM = experiment: Hepatic microsome stability assay, RLM; type: in vitro ADME, rat; settings: predicted hepatic clearance
Experimental: (§1) A hepatic microsome stability assay was conducted to investigate the metabolic disposition of ammoxetine. In this assay, 100 μL of ammoxetine (2.5 μmol/L) was incubated at 37°C with 100 μL of liver microsomes (RLM, DLM, MLM, or HLM) formulated in a 5 mmol/L dipotassium hydrogen phosphate (K2HPO4) buffer at pH 7.4. The concentration of microsomes was 0.5 g/L. To initiate the incubations, 50 μL of NADPH solution preincubated at 37°C was added. […] Parallel triplicate samples were prepared for each time point, including 0, 2, 5, 10, 15, 30, 60, 90, and 120 min. To stop the reactions at each time point, 250 μL of ice-cold precipitating agent (acetonitrile/methanol, 1:1, v/v) containing 500 ng/mL of L-phencynonate (IS) was added to the incubation mixture. The samples were vortexed for 2 min at 4°C and then centrifuged at 13,800×g for 10 min. The supernatants were analyzed using an LC-MS-MS approach. […]
(§2) In Formula 3, t1/2 (min) represents the half-life of ammoxetine in liver microsomes. It is calculated by dividing −0.693 by the resulting slope (k e) obtained from a natural logarithm plot of the remaining concentration of ammoxetine against incubation time. […]

[2] = Hepatic microsome stability assay, RLM; type: in vitro ADME, rat; settings: rat, liver microsomes, pH 7.4; 1 μmol/L, 0.2 g/L microsomes, NADPH
Experimental: as §1, §2

## CNCC[C@H](Oc1cccc2c1OCO2)c1cccs1 [ammoxetine]
[1]
  Plasma exposure as share of total systemic exposure (AUC0→t,blood/AUC0→t,total): approximately 0.186%
[1]; brain
  AUC(0→t): 60,541.26 ± 19,438.07 ng/g·h
[1]; fat
  AUC(0→t): 38,592.32 ± 24,498.69 ng/g·h
[1]; heart
  AUC(0→t): 44,743.11 ± 11,086.06 ng/g·h
[1]; intestine
  AUC(0→t): 190,710.5 ± 52,982.23 ng/g·h
[1]; kidney
  AUC(0→t): 98,000.01 ± 25,400.16 ng/g·h
[1]; liver
  AUC(0→t): 208,081.20 ± 64,872.68 ng/g·h
[1]; lung
  AUC(0→t): 393,670.80 ± 31,407.40 ng/g·h
[1]; muscle
  AUC(0→t): 24,154.50 ± 6,583.59 ng/g·h
[1]; spleen
  AUC(0→t): 117,673.30 ± 31,479.36 ng/g·h
[1]; stomach
  AUC(0→t): 118,279.40 ± 37,565.21 ng/g·h
[1]; testis
  AUC(0→t): 69,347.84 ± 13,459.91 ng/g·h
[1]; rat, heart, spleen, lung, kidney, brain, fat and muscle
  Tmax: 2 h
[1]; rat, testis
  Tmax: 6 h
[1]; rat, brain, brain
  Kp: ~23.3
[1]; rat, fat, fat
  Kp: 14.2 ± 7.84
[1]; rat, heart, heart
  Kp: 17.1 ± 3.3
[1]; rat, intestine, intestine
  Kp: 75.6 ± 28.2
[1]; rat, kidney, kidney
  Kp: 37.7 ± 8.18
[1]; rat, liver, liver
  Kp: 81.4 ± 26.8
[1]; rat, lung, lung
  Kp: 155 ± 34.7
[1]; rat, muscle, muscle
  Kp: 9.31 ± 2.29
[1]; rat, plasma, blood
  AUC(0-t): 2620 ng·h/mL
[1]; rat, spleen, spleen
  Kp: 46 ± 14.2
[1]; rat, stomach, stomach
  Kp: 48.8 ± 27.6
[1]; rat, testis, testis
  Kp: 27.3 ± 8.12
CYP 1A2
  Transformation ratio%: 14.04±2.29%
  residuary concentration of ammoxetine, Mean±SD: 5.89±0.16
RLM
  CL h: 49.58 ± 0.39 mL/min/kg
[2]
  half-life at 1 μmol/L: 12.8 ± 0.99 min
